Literature values as cited in patent publication US20060193824A1, “Methods for the treatment of infectious and inflammatory airway diseases” (priority 2005, published 2006).

Columns and labels:
[1] = test system: normal pancreatic cell lines; conditions: extracellular ATP
human airways [2] = test system: human airways
human airways [3] = test system: human airways; remark: listed apart in the source
[4] = test system: respiratory epithelial cells

## Nc1ncnc2c1ncn2[C@@H]1O[C@H](COP(=O)(O)OP(=O)(O)OP(=O)(O)O)[C@@H](O)[C@H]1O [ATP]
[1]
  mucin protein secretion: rapidly increased mucin protein secretion

## CCCCC/C=C\C/C=C\C/C=C\C/C=C\CCCC(=O)O [Arachidonic acid]
Human airways [2]
  mucin release: release mucin from human airways

## NCCc1c[nH]cn1 [Histamine]
Human airways [3]
  mucous glycoprotein release: stimulates mucous glycoprotein release

## CC(=O)N[C@H]1C(O)O[C@H](CO)[C@@H](O)[C@@H]1O (some centres unmarked) [N-acetyl-glucosamine]
GI tract
  mucin release: stimulate mucin release in the GI tract

## O=C(O)CNC(=O)C(CS)Cc1ccccc1 (centres unmarked) [Thiorphan]
Mucin release
  mucin release: stimulate mucin release

## CC(C[N+](C)(C)C)OC(N)=O (centres unmarked) [bethanechol]
Mucin secretion
  mucin secretion: effective to stimulate mucin secretion

## C[N+](C)(C)CCOC(N)=O [carbachol]
Mucin secretion
  mucin secretion: effective to stimulate mucin secretion

## CC(C)C[C@H](NC(=O)C(CS)Cc1ccccc1)C(=O)O (some centres unmarked) [leucine-thiorphan]
Mucin release
  mucin release: stimulate mucin release

## CC(=O)OC(C)C[N+](C)(C)C (centres unmarked) [methacholine]
Mucin secretion
  mucin secretion: effective to stimulate mucin secretion

## FC(F)(F)C(F)(F)C(F)(F)C(F)(F)C(F)(F)C(F)(F)C(F)(F)C(F)(F)Br [perflubron, perfluorooctyl bromide]
Ferret trachea
  mucin secretion: stimulates mucin secretion

## CC(C)C[C@H](NP(=O)(O)O[C@@H]1O[C@@H](C)[C@H](O)[C@@H](O)[C@H]1O)C(=O)N[C@@H](Cc1c[nH]c2ccccc12)C(=O)O [phosphoramidon]
Mucin release
  mucin release: stimulate mucin release

## Epidermal growth factor: Epidermal growth factor, EGF, which can be obtained from Sigma (NSDSECPLSHDGYCLHDGVCMYIEALDKYACNCVVGYIGERCQYRDLKWWELR; Epidermal growth factor; UniProt P01133 971-1023, looked up)
Mucin production
  mucin production: effective to stimulate mucin production

## Interleukin 1
Mucus secretion
  mucus secretagogue activity: mucus secretagogue

## Tumor necrosis factor alpha
[4]
  MUC5AC release: stimulate MUC5AC release
